Reference: the supplement of paper PMC11061612

Columns and labels:
[1] = tested on: OCUM-1 (Gastric Carcinoma); assay: Bliss excess, mean over the matrix (fraction); higher = more synergy
In short: (§1)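 After 24 hours at 37°C and 5% CO2 in 1536-well plates, cells in DMEM/F12 or RPMI plus 10% FBS received two-drug dose matrices for 72 hours. Viability came from CellTiter-Glo 2.0 luminescence and was scaled as inhibition, anchored at 0 by vehicle wells and at 1 by blank wells. Combination Emax is taken as the second-highest inhibition in the matrix, and Bliss excess as the observed combination effect less EA + EB − EA·EB, with EA and EB the single-agent effects.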

[2] = tested on: KINGS-1 (Low Grade Glioma); assay: as above
In short: as §1

[3] = tested on: VMRC-LCD (Lung Adenocarcinoma); assay: as above
In short: as §1

[4] = tested on: SCC-9 (Oral Cavity Carcinoma); assay: as above
In short: as §1

NB7 (Neuroblastoma) [5] = assay: as above
In short: as §1

EW-3 (Ewing's Sarcoma) [6] = assay: as above
In short: as §1

[7] = tested on: LC4-1 (B-Lymphoblastic Leukemia); assay: as above
In short: as §1

[8] = tested on: H-EMC-SS (Chondrosarcoma); assay: as above
In short: as §1

[9] = tested on: SNU-C1 (Colorectal Carcinoma); assay: as above
In short: as §1

[10] = tested on: TGBC11TKB (Gastric Carcinoma); assay: as above
In short: as §1

[11] = tested on: NCI-N87 (Gastric Carcinoma); assay: as above
In short: as §1

[12] = tested on: OCUB-M (Breast Carcinoma); assay: as above
In short: as §1

[13] = tested on: HSC-2 (Oral Cavity Carcinoma); assay: as above
In short: as §1

[14] = tested on: JHH-7 (Hepatocellular Carcinoma); assay: as above
In short: as §1

GI-1 (Glioblastoma) [15] = assay: as above
In short: as §1

[16] = tested on: OCUM-1 (Gastric Carcinoma); assay: combination Emax (second highest fraction inhibited in the dose matrix, 72 h); higher = more inhibition; extreme values may be limits of the assay
In short: as §1

[17] = tested on: KINGS-1 (Low Grade Glioma); assay: as above
In short: as §1

[18] = tested on: VMRC-LCD (Lung Adenocarcinoma); assay: as above
In short: as §1

[19] = tested on: SCC-9 (Oral Cavity Carcinoma); assay: as above
In short: as §1

NB7 (Neuroblastoma) [20] = assay: as above
In short: as §1

EW-3 (Ewing's Sarcoma) [21] = assay: as above
In short: as §1

[22] = tested on: LC4-1 (B-Lymphoblastic Leukemia); assay: as above
In short: as §1

[23] = tested on: H-EMC-SS (Chondrosarcoma); assay: as above
In short: as §1

[24] = tested on: SNU-C1 (Colorectal Carcinoma); assay: as above
In short: as §1

[25] = tested on: TGBC11TKB (Gastric Carcinoma); assay: as above
In short: as §1

[26] = tested on: NCI-N87 (Gastric Carcinoma); assay: as above
In short: as §1

[27] = tested on: OCUB-M (Breast Carcinoma); assay: as above
In short: as §1

[28] = tested on: HSC-2 (Oral Cavity Carcinoma); assay: as above
In short: as §1

[29] = tested on: JHH-7 (Hepatocellular Carcinoma); assay: as above
In short: as §1

GI-1 (Glioblastoma) [30] = assay: as above
In short: as §1
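For Bliss excess, mean over the matrix in this document: after 72 h of two-drug dosing.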

Structure (SMILES): C=CCn1c(=O)c2cnc(Nc3ccc(N4CCN(C)CC4)cc3)nc2n1-c1cccc(C(C)(C)O)n1 [AZD1775] + CCc1c2c(nc3ccc(O)cc13)-c1cc3c(c(=O)n1C2)COC(=O)[C@]3(O)CC [SN-38] (first compound max 1 µM, partner max 0.3 µM)
- Bliss excess [1]: -0.0758
- Bliss excess [2]: -0.0275
- Bliss excess [3]: -0.126
- Bliss excess [4]: -0.0365
- Bliss excess (NB7 (Neuroblastoma) [5]): 0.0564
- Bliss excess (EW-3 (Ewing's Sarcoma) [6]): -0.135
- Bliss excess [7]: -0.0519
- Bliss excess [8]: -0.0137
- Bliss excess [9]: -0.0837
- Bliss excess [10]: -0.0338
- Bliss excess [11]: -0.0855
- Bliss excess [12]: 0.0926
- Bliss excess [13]: -0.0298
- Bliss excess [14]: 0.0117
- Bliss excess (GI-1 (Glioblastoma) [15]): -0.0412
- combination Emax [16]: 0.65
- combination Emax [17]: 0.495
- combination Emax [18]: 0.591
- combination Emax [19]: 0.557
- combination Emax (NB7 (Neuroblastoma) [20]): 0.97
- combination Emax (EW-3 (Ewing's Sarcoma) [21]): 0.872
- combination Emax [22]: 0.934
- combination Emax [23]: 0.561
- combination Emax [24]: 0.646
- combination Emax [25]: 0.914
- combination Emax [26]: 0.8
- combination Emax [27]: 0.931
- combination Emax [28]: 0.952
- combination Emax [29]: 0.43
- combination Emax (GI-1 (Glioblastoma) [30]): 0.988

Structure (SMILES): O=C(c1cc(Cc2n[nH]c(=O)c3ccccc23)ccc1F)N1CCN(C(=O)C2CC2)CC1 [Olaparib] + CN(CC[C@H](CSC1=CC=CC=C1)NC2=C(C=C(C=C2)S(=O)(=O)NC(=O)C3=CC=C(C=C3)N4CCC(CC4)[C@H](C5=CC=CC=C5C6=CC=C(C=C6)Cl)O)S(=O)(=O)C(F)(F)F)CCO [AZD4320] (first compound max 10 µM, 7x7, partner max 1 µM)
- Bliss excess [1]: 0.0129
- Bliss excess [2]: -0.0792
- Bliss excess [3]: -0.029
- Bliss excess [4]: -0.0395
- Bliss excess (NB7 (Neuroblastoma) [5]): -0.0251
- Bliss excess (EW-3 (Ewing's Sarcoma) [6]): 0.0125
- Bliss excess [7]: 0.0153
- Bliss excess [8]: 0.0051
- Bliss excess [9]: -0.055
- Bliss excess [10]: 0.0082
- Bliss excess [11]: -0.0729
- Bliss excess [12]: -0.0115
- Bliss excess [13]: 0.0039
- Bliss excess [14]: -0.0326
- Bliss excess (GI-1 (Glioblastoma) [15]): 0.0255
- combination Emax [16]: 0.834
- combination Emax [17]: 0.646
- combination Emax [18]: 0.114
- combination Emax [19]: 0.398
- combination Emax (NB7 (Neuroblastoma) [20]): 0.393
- combination Emax (EW-3 (Ewing's Sarcoma) [21]): 0.904
- combination Emax [22]: 1
- combination Emax [23]: 0.422
- combination Emax [24]: 0.613
- combination Emax [25]: 0.42
- combination Emax [26]: 0.503
- combination Emax [27]: 0.454
- combination Emax [28]: 0.201
- combination Emax [29]: 0.203
- combination Emax (GI-1 (Glioblastoma) [30]): 0.302

Structure (SMILES): C[C@@H](Oc1cc(-c2cnn(C3CCNCC3)c2)cnc1N)c1c(Cl)ccc(F)c1Cl [Crizotinib] + Cn1cnc2c(F)c(Nc3ccc(Br)cc3Cl)c(C(=O)NOCCO)cc21 [Selumetinib] (first compound max 10 µM, 7x7, partner max 10 µM)
- Bliss excess [1]: 0.0251
- Bliss excess [2]: 0.0342
- Bliss excess [3]: -0.0474
- Bliss excess [4]: 0.0117
- Bliss excess (NB7 (Neuroblastoma) [5]): -0.0033
- Bliss excess (EW-3 (Ewing's Sarcoma) [6]): -0.134
- Bliss excess [7]: -0.0198
- Bliss excess [8]: -0.0166
- Bliss excess [9]: 0.0325
- Bliss excess [10]: 0.0524
- Bliss excess [11]: -0.0764
- Bliss excess [12]: 0.0034
- Bliss excess [13]: -0.0618
- Bliss excess [14]: -0.0152
- Bliss excess (GI-1 (Glioblastoma) [15]): -0.0355
- combination Emax [16]: 0.936
- combination Emax [17]: 0.799
- combination Emax [18]: 0.665
- combination Emax [19]: 0.919
- combination Emax (NB7 (Neuroblastoma) [20]): 0.443
- combination Emax (EW-3 (Ewing's Sarcoma) [21]): 0.525
- combination Emax [22]: 0.896
- combination Emax [23]: 0.405
- combination Emax [24]: 0.892
- combination Emax [25]: 0.557
- combination Emax [26]: 0.383
- combination Emax [27]: 0.458
- combination Emax [28]: 0.551
- combination Emax [29]: 0.56
- combination Emax (GI-1 (Glioblastoma) [30]): 0.602

Structure (SMILES): C[C@@H](Nc1cc(F)cc(F)c1)c1cc(C(=O)N(C)C)cc2c(=O)cc(N3CCOCC3)oc12 [AZD8186] + CC(=O)c1c(C)c2cnc(Nc3ccc(N4CCNCC4)cn3)nc2n(C2CCCC2)c1=O [Palbociclib] (first compound max 10 µM, 7x7, partner max 10 µM)
- Bliss excess [1]: 0.0111
- Bliss excess [2]: 0.0318
- Bliss excess [3]: 0.006
- Bliss excess [4]: 0.0322
- Bliss excess (NB7 (Neuroblastoma) [5]): 0.211
- Bliss excess (EW-3 (Ewing's Sarcoma) [6]): 0.0752
- Bliss excess [7]: 0.202
- Bliss excess [8]: -0.0127
- Bliss excess [9]: 0.0065
- Bliss excess [10]: 0.0002
- Bliss excess [11]: 0.0255
- Bliss excess [12]: -0.0466
- Bliss excess [13]: 0.0014
- Bliss excess [14]: -0.0086
- Bliss excess (GI-1 (Glioblastoma) [15]): 0.0438
- combination Emax [16]: 0.36
- combination Emax [17]: 0.398
- combination Emax [18]: 0.165
- combination Emax [19]: 0.382
- combination Emax (NB7 (Neuroblastoma) [20]): 0.932
- combination Emax (EW-3 (Ewing's Sarcoma) [21]): 0.392
- combination Emax [22]: 0.641
- combination Emax [23]: 0.474
- combination Emax [24]: 0.37
- combination Emax [25]: 0.178
- combination Emax [26]: 0.656
- combination Emax [27]: 0.252
- combination Emax [28]: 0.533
- combination Emax [29]: 0.216
- combination Emax (GI-1 (Glioblastoma) [30]): 0.454
